Measurements reported in patent US7368578B2, “Five-membered heterocyclic compounds” (Takeda Pharmaceutical Company Limited, priority 2002, dated 2008).

`COC(=O)c1cc(-c2nc(COc3ccc(COc4nn(-c5ccccc5)cc4C=O)cc3OC)c(C)o2)ccc1OS(C)(=O)=O` [Example 255, methyl 5-{4-[(4-{[(4-formyl-1-phenyl-1H-pyrazol-3-yl)oxy]methyl}-2-methoxyphenoxy)methyl]-5-methyl-1,3-oxazol-2-yl}-2-(methanesulfonyloxy)benzoate] showed a melting point of 136 to 137 °C. Work on `COc1cc(COc2nn(-c3ccccc3)cc2/C=C/C(N)=S)ccc1OCc1nc(-c2ccco2)oc1C` [Example 184, (2E)-3-{3-[(4-{[2-(2-furyl)-5-methyl-1,3-oxazol-4-yl]methoxy}-3-methoxybenzyl)oxy]-1-phenyl-1H-pyrazol-4-yl}-2-propenethioamide] yielded a melting point of 129 to 131 °C. In the case of `COc1cc(COc2nn(-c3ccccc3)cc2/C=C/S(C)(=O)=O)ccc1OCc1nc(-c2ccco2)oc1C` [Example 130, 2-(2-furyl)-4-({2-methoxy-4-[({4-[(E)-2-(methylsulfonyl)ethenyl]-1-phenyl-1H-pyrazol-3-yl}oxy)methyl]phenoxy}methyl)-5-methyl-1,3-oxazole], the melting point was 152 to 153 °C. `COc1cc(COc2nn(-c3ccccc3)cc2/C=C/C(=O)N(C)OC)ccc1OCc1nc(-c2ccco2)oc1C` [Example 162, (2E)-3-{3-[(4-{[2-(2-furyl)-5-methyl-1,3-oxazol-4-yl]methoxy}-3-methoxybenzyl)oxy]-1-phenyl-1H-pyrazol-4-yl}-N-methoxy-N-methyl-2-propenamide] showed a melting point of 173 to 174 °C. `COc1ccc(COc2nn(Cc3ccccc3)cc2C=O)cc1OCc1nc(-c2ccco2)oc1C` [Example 34, 1-benzyl-3-[(3-{[2-(2-furyl)-5-methyl-1,3-oxazol-4-yl]methoxy}-4-methoxybenzyl)oxy]-1H-pyrazole-4-carbaldehyde] showed a melting point of 142 to 143 °C. For `C=CC(c1cn(-c2ccccc2)nc1OCc1ccc(OCc2nc(-c3ccco3)oc2C)c(OC)c1)n1cncn1` (stereo not drawn) [Example 110, 1-(1-{3-[(4-{[2-(2-furyl)-5-methyl-1,3-oxazol-4-yl]methoxy}-3-methoxybenzyl)oxy]-1-phenyl-1H-pyrazol-4-yl}-2-propenyl)-1H-1,2,4-triazole], the melting point was 115 to 116 °C. Work on `COc1cc(COc2nn(CCO)cc2CO)ccc1OCc1nc(-c2ccco2)oc1C` [Example 176, 2-[3-[(4-{[2-(2-furyl)-5-methyl-1,3-oxazol-4-yl]methoxy}-3-methoxybenzyl)oxy]-4-(hydroxymethyl)-1H-pyrazol-1-yl]ethanol] yielded a melting point of 120 to 122 °C. For `CCOP(=O)(/C=C/c1cn(-c2ccccc2)nc1OCc1ccc(OCc2nc(-c3ccc(CC(=O)[O-])cc3)oc2C)c(OC)c1)OCC.[Na+]`, the melting point was 109 to 110 °C. In the case of `CC(=O)NC(=O)c1cn(Cc2ccccc2)nc1OCc1ccc(OCc2nc(-c3ccco3)oc2C)cc1` [Example 9, N-acetyl-1-benzyl-3-[(4{[2-(2-furyl)-5-methyl-1,3-oxazol-4-yl]methoxy}benzyl)oxy]-1H-pyrazole-4-carboxamide], the melting point was 193 to 194 °C. Compound `COc1cc(COc2nn(-c3ccc(C(F)(F)F)cc3)cc2/C=C/C(=O)OCOC(=O)C(C)(C)C)ccc1OCc1nc(-c2ccccc2)oc1C` [Example 297, [(2,2-dimethylpropanoyl)oxy]methyl (2E)-3-{3-({3-methoxy-4-[(5-methyl-2-phenyl-1,3-oxazol-4-yl)methoxy]benzyl}oxy)-1-[4-(trifluoromethyl)phenyl]-1H-pyrazol-4-yl}-2-propenoate] has a melting point of 131 to 132 °C. For `CCOC(=O)/C=C/c1cn(-c2ccccc2)nc1OCc1ccc(OCc2nc(-c3ccco3)oc2C)cc1` [Example 87, ethyl (2E)-3-(3-[(4-{[2-(2-furyl)-5-methyl-1,3-oxazol-4-yl]methoxy}benzyl)oxy]-1-phenyl-1H-pyrazol-4-yl}-2-propenoate], the melting point was 142 to 143 °C. With `CCOP(=O)(/C=C/c1cn(-c2ccccc2)nc1OCc1ccc(OCc2nc(-c3ccc(C)c(C(=O)OC)c3)oc2C)c(OC)c1)OCC` the melting point was 121 to 122 °C. `COc1cc(COc2nn(Cc3ccccc3)cc2C(C)O)ccc1OCc1nc(-c2ccco2)oc1C` (stereo not drawn) [Example 18, 1-{1-benzyl-3-[(4-{[2-(2-furyl)-5-methyl-1,3-oxazol-4-yl]methoxy}-3-methoxybenzyl)oxy]-1H-pyrazol-4-yl}-1-ethanol] gave a melting point of 105 to 106 °C. Compound `CCOC(=O)c1cn(Cc2ccccc2)nc1OCc1ccc(OCc2nc(-c3ccco3)oc2C)cc1` [Example 6, ethyl 1-benzyl-3-[(4-{[2-(2-furyl)-5-methyl-1,3-oxazol-4-yl]methoxy}benzyl)oxy]-1H-pyrazole-4-carboxylate] has a melting point of 101 to 102 °C. Work on `CCOC(=O)c1cn(Cc2ccccc2)nc1OCc1ccc(OCc2nc(-c3ccco3)oc2C)c(CC)c1` [Example 68, ethyl 1-benzyl-3-[(3-ethyl-4-{[2-(2-furyl)-5-methyl-1,3-oxazol-4-yl]methoxy}benzyl)oxy]-1H-pyrazole-4-carboxylate] yielded a melting point of 125 to 126 °C. Work on `CCOC(=O)c1cn(Cc2ccccc2)nc1OCc1ccc(OCc2nc(-c3ccco3)oc2C)c(Br)c1` [Example 55, ethyl 1-benzyl-3-[(3-bromo-4-{[2-(2-furyl)-5-methyl-1,3-oxazol-4-yl]methoxy}benzyl)oxy]-1H-pyrazole-4-carboxylate] yielded a melting point of 158 to 159 °C. With `CCc1nc(/C=C/c2cn(-c3ccccc3)nc2OCc2ccc(OCc3nc(-c4ccc(C(=O)O)o4)oc3C)c(OC)c2)cs1` [Example 242, 5-[4-({4-[({4-[(E)-2-(2-ethyl-1,3-thiazol-4-yl)ethenyl]-1-phenyl-1H-pyrazol-3-yl}oxy)methyl]-2-methoxyphenoxy}methyl)-5-methyl-1,3-oxazol-2-yl]-2-furancarboxylic acid] the melting point was 154 to 155 °C. In the case of `CCOC(=O)c1cn(-c2ccccc2)nc1OCc1ccc(OCc2nc(-c3ccccc3)oc2C)c(OC)c1` [Example 272, ethyl 3-{[3-methoxy-4-(5-methyl-2-phenyl-1,3-oxazol-4-ylmethoxy)benzyl]oxy}-1-phenyl-1H-pyrazole-4-carboxylate], the melting point was 160 to 161 °C. `CCn1cncc1/C=C/c1cn(-c2ccccc2)nc1OCc1ccc(OCc2nc(-c3ccco3)oc2C)c(OC)c1` [Example 182, 4-({4-[({4-[(E)-2-(1-ethyl-1H-imidazol-5-yl)ethenyl]-1-phenyl-1H-pyrazol-3-yl}oxy)methyl]-2-methoxyphenoxy}methyl)-2-(2-furyl)-5-methyl-1,3-oxazole] showed a melting point of 130 to 132 °C. `CCOC(=O)c1cn(Cc2ccccc2)nc1OCc1ccc(OCc2nc(-c3ccco3)oc2C)c(O)c1` [Example 46, ethyl 1-benzyl-3-[(4-{[2-(2-furyl)-5-methyl-1,3-oxazol-4-yl]methoxy}-3-hydroxybenzyl)oxy]-1H-pyrazole-4-carboxylate] showed a melting point of 134 to 135 °C. In the case of `CCOC(=O)/C=C/c1nc(COc2ccc(COc3nn(-c4ccccc4)cc3/C=C/P(=O)(OCC)OCC)cc2OC)c(C)o1`, the melting point was 130 to 131 °C. Compound `CCc1nc(/C=C/c2cn(-c3ccccc3)nc2OCc2ccc(OCc3nc(-c4cccc(C#N)c4)oc3C)c(OC)c2)cs1` [Example 372, 3-[4-({4-[({4-[(E)-2-(2-ethyl-1,3-thiazol-4-yl)ethenyl]-1-phenyl-1H-pyrazol-3-yl}oxy)methyl]-2-methoxyphenoxy}methyl)-5-methyl-1,3-oxazol-2-yl]benzonitrile] has a melting point of 138 to 140 °C. For `CCc1nc(/C=C/c2cn(-c3ccccc3)nc2OCc2ccc(OCc3nc(-c4cccc(C(=O)NS(C)(=O)=O)c4)oc3C)c(OC)c2)cs1` [Example 376, 3-[4-({4-[({4-[(E)-2-(2-ethyl-1,3-thiazol-4-yl)ethenyl]-1-phenyl-1H-pyrazol-3-yl}oxy)methyl]-2-methoxyphenoxy}methyl)-5-methyl-1,3-oxazol-2-yl]-N-(methylsulfonyl)benzamide], the melting point was 211 to 213 °C. For `COc1cc(COc2nn(-c3ccccc3)cc2CC#N)ccc1OCc1nc(-c2ccccc2)oc1C` [Example 283, (3-{[3-methoxy-4-(5-methyl-2-phenyl-1,3-oxazol-4-ylmethoxy)benzyl]oxy}-1-phenyl-1H-pyrazol-4-yl)acetonitrile], the melting point was 137 to 138 °C. `COCc1cn(-c2ccccc2)nc1OCc1ccc(OCc2nc(-c3ccco3)oc2C)c(OC)c1` [Example 101, 2-(2-furyl)-4-{[2-methoxy-4-({[4-(methoxymethyl)-1-phenyl-1H-pyrazol-3-yl]oxy}methyl)phenoxy]methyl}-5-methyl-1,3-oxazole] gave a melting point of 121 to 122 °C. For `COC(=O)c1cccc(-c2nc(COc3ccc(COc4nn(-c5ccccc5)cc4C=O)cc3)c(C)o2)c1` [Example 237, methyl 3-{4-[(4-{[(4-formyl-1-phenyl-1H-pyrazol-3-yl)oxy]methyl}phenoxy)methyl]-5-methyl-1,3-oxazol-2-yl}benzoate], the melting point was 161 to 162 °C. `COc1cc(COc2nn(-c3ccccc3)cc2C=O)ccc1OCc1coc(-c2ccco2)n1` [Example 218, 3-[(4-{[2-(2-furyl)-1,3-oxazol-4-yl]methoxy}-3-methoxybenzyl)oxy]-1-phenyl-1H-pyrazole-4-carbaldehyde] gave a melting point of 162 to 163 °C. In the case of `CCc1nc(/C=C\c2cn(-c3ccccc3)nc2OCc2ccc(OCc3csc(N4CCCCC4)n3)c(OC)c2)cs1` [Example 193 (Z form), 1-[4-({4-[({4-[(Z)-2-(2-ethyl-1,3-thiazol-4-yl)ethenyl]-1-phenyl-1H-pyrazol-3-yl}oxy)methyl]-2-methoxyphenoxy}methyl)-1,3-thiazol-2-yl]piperidine], the melting point was 93 to 94 °C. For `CCOC(=O)Cc1ccc(-c2nc(COc3ccc(COc4nn(-c5ccccc5)cc4/C=C/c4csc(C(C)C)n4)cc3OC)c(C)o2)cc1` [Example 360, ethyl {4-[4-({4-[({4-[(E)-2-(2-isopropyl-1,3-thiazol-4-yl)ethenyl]-1-phenyl-1H-pyrazol-3-yl}oxy)methyl]-2-methoxyphenoxy}methyl)-5-methyl-1,3-oxazol-2-yl]phenyl}acetate], the melting point was 89 to 90 °C. `CCOC(=O)c1cn(Cc2ccccc2)nc1OCc1ccc(OCc2nc(-c3ccco3)oc2C)c(Cl)c1` [Example 35, ethyl 1-benzyl-3-[(3-chloro-4-{[2-(2-furyl)-5-methyl-1,3-oxazol-4-yl]methoxy}benzyl)oxy]-1H-pyrazole-4-carboxylate] gave a melting point of 153 to 154 °C.
